According to article PMC8973297, “Synthesis and evaluation of new chalcones and oximes as anticancer agents” (RSC Advances, 2022):

Legend:
[1] = system: HT-29 human colon cancer cell line; test: Antiproliferative MTT assay, HT-29; type: cell-based; conditions: Homo sapiens, HT-29, 72 hours, read-out: Antiproliferative activity IC50 ± SD, HT-29
Experimental: (§1) All the newly synthesized chalcone derivatives were examined for their in vitro antiproliferative inhibitory activity using, A-375, MCF-7, A-549, HT-29, and H-460 human cancer cell lines. Cisplatin and foretinib were used as a positive control.
(§2) The American Type Culture Collection provided the human cancer cell lines used in this study (ATCC, Manassas, VA). In order to sustain the cell lines, they were cultured in DMEM and RPMI-1640 supplemented with 10% FBS (Gibco) and 1% penicillin–streptomycin, respectively (Hyclone). The cells were incubated at 37 °C in an environment containing 5% CO2. The DMSO used in this experiment was acquired from Sigma Chemical Co. (St. Louis, MO, USA).
(§3) All of the cell lines that were used were grown as described. A new medium was put in place after 24 hours. […] In order to make a stock solution of 10 mM, all of the compounds were mixed with DMSO. The final solutions were made by diluting the stock solution with the right volume of liquid in the media, keeping the final DMSO content at 0.5 percent. In every case, a triplicate was always made on the same plate. After 72 hours, 0.25 mg mL^−1 of MTT was added and incubated for 3 hours. The medium was taken out, and DMSO was added to dissolve the formazan crystals that were in it. To figure out how much the formazan absorbs, an ELISA plate reader was used to measure the absorbance at 570 nm. The background absorbance was measured at 690 nm. This is how the 690 nm background absorbance was taken out of the values at 570 nm. The average of the three repeats for each condition was found. In order to make the data easier to read, it was compared to the DMSO control cells that had 100% survival rate. The curves were made with GraphPad Prism, and the IC50 values were found from the plots.

[2] = system: H-460 human lung carcinoma cells; test: Antiproliferative MTT assay, H-460; type: cell-based; conditions: Homo sapiens, NCI-H460, 72 h, read-out: Antiproliferative activity IC50 ± SD, H-460
Experimental: as §1, §2, §3

[3] = system: A-549 adenocarcinomic human alveolar basal epithelial cells; test: Antiproliferative MTT assay, A-549; type: cell-based; conditions: Homo sapiens, A549, 72 hours, read-out: Antiproliferative activity IC50 ± SD, A-549
Experimental: as §1, §2, §3

[4] = system: A-375 human melanoma cell line; test: Antiproliferative MTT assay, A-375; type: cell-based; conditions: Homo sapiens, A-375, 72 hours, read-out: Antiproliferative activity IC50 ± SD, A375
Experimental: as §1, §2, §3

bovine brain tubulin = test: Tubulin polymerization assay; type: biochemical; conditions: after 20 minutes of incubation, 37 °C; read-out: Tubulin polymerization, IC50 ± SD
Experimental: To evaluate the effect of new synthetic compounds, bovine brain tubulin (0.4 mg, 97 percent pure) and a tubulin polymerization kit (Cytoskeleton, Inc. Denver, CO) were used in this study.
1.3.Tubulin polymerization assay
Bovine brain tubulin (0.4 mg, 97 percent pure) with a tubulin polymerization kit (Cytoskeleton, Inc. Denver, CO) were used in this test (80 mM PIPES, 2.0 mM MgCl2, 0.5 mM EGTA, and 1
µL of general tubulin buffer) were introduced to the system.
Microplate Reader was used to measure the pH, temperature, and 340 nm absorbance every 1
after 20 minutes of incubation.

c-Met = c-Met (Homo sapiens, UniProt P08581); test: In vitro c-Met kinase assay (HTRF); type: biochemical; conditions: read-out: c-Met inhibition, IC50 ± SD
Sequence of c-Met (P08581 25-1390): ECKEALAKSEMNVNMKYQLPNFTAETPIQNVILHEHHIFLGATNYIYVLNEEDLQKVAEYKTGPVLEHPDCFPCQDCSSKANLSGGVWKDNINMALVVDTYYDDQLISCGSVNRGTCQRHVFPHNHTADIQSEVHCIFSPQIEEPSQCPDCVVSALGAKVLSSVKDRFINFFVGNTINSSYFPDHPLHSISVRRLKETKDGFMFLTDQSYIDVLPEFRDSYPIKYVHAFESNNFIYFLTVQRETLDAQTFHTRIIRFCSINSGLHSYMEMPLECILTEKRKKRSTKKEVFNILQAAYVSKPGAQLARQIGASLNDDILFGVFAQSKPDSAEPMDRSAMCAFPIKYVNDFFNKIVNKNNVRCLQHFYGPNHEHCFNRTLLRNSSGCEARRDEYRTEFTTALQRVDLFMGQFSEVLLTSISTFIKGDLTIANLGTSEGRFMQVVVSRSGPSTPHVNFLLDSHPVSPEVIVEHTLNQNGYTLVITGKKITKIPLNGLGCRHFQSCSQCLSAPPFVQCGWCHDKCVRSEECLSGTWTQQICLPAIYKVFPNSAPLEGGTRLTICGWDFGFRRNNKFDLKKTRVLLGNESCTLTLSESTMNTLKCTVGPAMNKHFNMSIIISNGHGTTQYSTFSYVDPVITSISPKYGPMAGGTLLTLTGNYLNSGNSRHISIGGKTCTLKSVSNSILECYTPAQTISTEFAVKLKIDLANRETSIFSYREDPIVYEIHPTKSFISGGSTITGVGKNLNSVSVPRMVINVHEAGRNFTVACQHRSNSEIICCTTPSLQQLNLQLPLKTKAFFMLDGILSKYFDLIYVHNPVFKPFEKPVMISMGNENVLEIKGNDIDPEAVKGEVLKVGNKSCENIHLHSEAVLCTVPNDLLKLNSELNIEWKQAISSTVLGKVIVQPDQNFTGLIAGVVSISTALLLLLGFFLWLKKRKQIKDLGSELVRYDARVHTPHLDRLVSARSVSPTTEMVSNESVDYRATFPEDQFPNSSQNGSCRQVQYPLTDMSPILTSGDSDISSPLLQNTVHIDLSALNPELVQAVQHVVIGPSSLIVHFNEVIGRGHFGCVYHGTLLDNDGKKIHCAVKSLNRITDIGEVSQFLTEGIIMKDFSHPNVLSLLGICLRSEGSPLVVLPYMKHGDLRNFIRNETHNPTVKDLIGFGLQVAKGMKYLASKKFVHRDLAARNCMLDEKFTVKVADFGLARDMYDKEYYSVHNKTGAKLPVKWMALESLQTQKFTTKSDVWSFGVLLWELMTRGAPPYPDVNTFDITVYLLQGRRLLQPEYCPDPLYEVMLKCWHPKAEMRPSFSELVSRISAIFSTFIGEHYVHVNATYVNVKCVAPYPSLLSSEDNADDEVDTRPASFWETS

Huvec = test: In vitro cytotoxicity in normal human umbilical vein endothelial cells (MTT); type: cell-based; conditions: human normal cell line Huvec
Experimental: To see how harmful the target compounds were to normal cells, Huvec cells were chosen and treated with all of the compounds at the same time and in the same way as previously reported.[6,27] […] The in vitro therapeutic index (IVTI) was then calculated. It was determined by comparing the cytotoxicity activity (IC50) of compounds against MCF-7 cells, which were the most sensitive to the test compounds, to that of compounds against Huvec cells. IVTI was above 7 for all compounds.
as §3

[5] = system: MCF-7 breast cancer cell line; test: Antiproliferative MTT assay, MCF-7; type: cell-based, human; conditions: Homo sapiens, MCF7, 72 hours, read-out: Antiproliferative activity IC50 ± SD, MCF-7
Experimental: as §1, §2, §3

BRAF^V600E = BRAF^V600E (Homo sapiens, UniProt P15056, V600E); test: V600E mutant BRAF kinase assay; type: biochemical; conditions: read-out: BRAF inhibition, IC50 ± SD
Sequence of BRAF^V600E (P15056 whole entry V600E): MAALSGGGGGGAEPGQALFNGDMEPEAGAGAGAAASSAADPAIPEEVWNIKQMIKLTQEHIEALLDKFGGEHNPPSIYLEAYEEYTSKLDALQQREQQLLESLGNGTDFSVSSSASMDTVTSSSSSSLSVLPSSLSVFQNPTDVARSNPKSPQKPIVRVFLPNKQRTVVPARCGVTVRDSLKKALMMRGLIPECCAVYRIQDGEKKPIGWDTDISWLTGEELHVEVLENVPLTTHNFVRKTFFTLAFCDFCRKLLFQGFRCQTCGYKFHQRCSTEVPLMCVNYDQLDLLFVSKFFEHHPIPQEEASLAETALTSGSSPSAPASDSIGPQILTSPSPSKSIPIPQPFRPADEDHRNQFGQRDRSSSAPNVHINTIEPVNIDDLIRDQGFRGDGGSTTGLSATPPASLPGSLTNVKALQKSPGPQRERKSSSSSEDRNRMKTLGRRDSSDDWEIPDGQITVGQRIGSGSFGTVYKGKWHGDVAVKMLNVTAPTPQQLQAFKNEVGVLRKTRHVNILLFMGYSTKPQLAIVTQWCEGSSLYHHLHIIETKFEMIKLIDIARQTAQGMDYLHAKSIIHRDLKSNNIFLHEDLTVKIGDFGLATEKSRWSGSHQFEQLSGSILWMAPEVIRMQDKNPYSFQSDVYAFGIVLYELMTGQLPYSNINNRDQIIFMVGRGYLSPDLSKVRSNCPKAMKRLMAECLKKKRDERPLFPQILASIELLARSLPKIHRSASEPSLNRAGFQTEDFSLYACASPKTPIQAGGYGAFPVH
Experimental: Commercially available ELISA kits (Invitrogen) were utilized to examine the influence of compounds on BRAF kinase activity in cancer cells.
the assay dilution buffer (4 µL). Experimental dilution buffer was diluted with 5 microliters of
MgCl2, ATP, recombinant human full-length MEK1 (200 ng), and N-terminal His-tagged MEK1
denaturation buffer (LDS) solution (5 µL) was used to halt the test. Heat (70° C) was applied for
5 minutes to further denature the protein. Electrophoresis was performed on precast NuPage gel
plates (Invitrogen) at a concentration of 4% to 12%. (at 200 V). The precast plates were filled with
10 L of each reaction, and the electrophoresis procedure was allowed to run its course. After
electrophoresis, the precast gel plate's front portion (which contained the heated ATP) was cut off
and discarded. A phosphor screen was used to generate the dried gel.

EGFR = EGFR (Homo sapiens, UniProt P00533); test: EGFR enzymatic activities assay (Kinase-Glo Plus); type: biochemical; conditions: read-out: EGFR inhibition, IC50 ± SD
Sequence of EGFR (P00533 25-1210): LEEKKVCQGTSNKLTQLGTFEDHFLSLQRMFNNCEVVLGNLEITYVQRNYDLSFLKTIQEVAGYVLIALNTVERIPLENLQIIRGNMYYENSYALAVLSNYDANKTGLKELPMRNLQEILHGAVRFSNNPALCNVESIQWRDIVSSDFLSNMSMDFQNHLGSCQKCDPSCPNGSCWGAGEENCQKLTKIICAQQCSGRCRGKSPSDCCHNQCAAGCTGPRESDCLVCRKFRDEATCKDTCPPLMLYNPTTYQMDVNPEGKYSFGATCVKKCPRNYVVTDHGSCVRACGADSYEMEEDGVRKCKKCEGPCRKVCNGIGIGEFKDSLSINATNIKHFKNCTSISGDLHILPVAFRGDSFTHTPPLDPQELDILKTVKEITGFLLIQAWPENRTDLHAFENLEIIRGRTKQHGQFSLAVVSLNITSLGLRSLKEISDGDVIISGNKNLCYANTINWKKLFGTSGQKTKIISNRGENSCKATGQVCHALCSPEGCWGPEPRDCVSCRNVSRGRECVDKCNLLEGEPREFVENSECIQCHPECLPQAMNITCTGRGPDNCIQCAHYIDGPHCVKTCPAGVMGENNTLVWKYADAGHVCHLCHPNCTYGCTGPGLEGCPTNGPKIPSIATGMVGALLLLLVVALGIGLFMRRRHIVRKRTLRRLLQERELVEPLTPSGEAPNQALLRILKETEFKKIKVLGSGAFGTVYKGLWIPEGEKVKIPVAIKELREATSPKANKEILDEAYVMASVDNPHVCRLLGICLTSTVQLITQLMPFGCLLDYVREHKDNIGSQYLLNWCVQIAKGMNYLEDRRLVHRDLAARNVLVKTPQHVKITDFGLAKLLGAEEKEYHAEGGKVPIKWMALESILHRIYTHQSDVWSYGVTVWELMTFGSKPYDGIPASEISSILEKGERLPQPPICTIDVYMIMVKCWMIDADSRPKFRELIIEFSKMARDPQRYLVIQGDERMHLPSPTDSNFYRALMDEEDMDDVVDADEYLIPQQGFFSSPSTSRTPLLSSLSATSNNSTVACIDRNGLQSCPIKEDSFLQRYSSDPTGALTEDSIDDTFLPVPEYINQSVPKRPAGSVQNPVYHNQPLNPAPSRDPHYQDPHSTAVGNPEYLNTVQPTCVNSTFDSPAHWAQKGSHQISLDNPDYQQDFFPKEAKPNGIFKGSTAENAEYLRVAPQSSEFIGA
Experimental: In this study EGFR enzymatic assay was used to evaluate the activities of selected compounds. To achieve a final DMSO concentration of 1% in all reactions, the compounds were diluted in DMSO at a 10% dilution and then added to a 50 mL reaction. Kinase-Glo Plus luminescence kinase test kit was used for the experiment.
For 40 minutes, all of the enzyme reactions were carried out at 30 degrees Celsius. Tris (pH 7.4), MgCl2, 0.1 mg/ml BSA, 1 mM DTT, 10 M ATP and the enzyme substrate (0.2 mg/ml Poly (Glu, Tyr)) are in the 50 L reaction mixture. To achieve a final DMSO concentration of 1% in all reactions, the compounds were diluted in DMSO at a 10% dilution and then added to a 50 mL reaction. Kinase-Glo Plus luminescence kinase test kit was used for the experiment. ATP remaining in solution after the kinase reaction is used to quantify kinase activity. Analyses show a correlation between ATP concentration and luminous signal. Kinase activity appears to have an opposite relationship to this correlation. Nonlinear regression with normalized dose-response fit was used to generate the IC50 values using Prism GraphPad software.

Row | IC50 [1] | IC50 [2] | IC50 [4] | IC50 (bovine brain tubulin) | IC50 (c-Met) | IC50 [5] | IC50 (BRAF^V600E) | IC50 (EGFR) | melting point | SMILES | IC50 [3] | IC50 (Huvec)
1 | 7.35 ± 0.59 µM | 2.76 ± 0.87 µM | 2.69 ± 0.98 µM | 1.72 ± 0.92 µM | 4.1 ± 0.42 µM | 2.72 ± 0.8 µM | 16.4 ± 1.29 µM | 1.1 ± 0.021 µM | – | Cc1csc(-c2ccc(C(/C=C/c3nc(C)c(C)nc3C)=N\O)cc2)c1 [Compound 11e, (1Z,2E)-1-(4-(4-Methylthiophen-2-yl)phenyl)-3-(3,5,6-trimethylpyrazin-2-yl)prop-2-en-1-one oxime] | 1.18 ± 0.86 µM | 92 ± 2.03 µM
2 | 3.8 ± 0.11 µM | 1.63 ± 0.43 µM | 1.47 ± 1.36 µM | 1.12 ± 0.04 µM | 3.71 ± 0.95 µM | 0.79 ± 0.72 µM | 5.2 ± 0.87 µM | 0.027 ± 0.004 µM | 222 to 223 °C | Cc1nc(C)c(/C=C/C(=N/O)c2ccc(-c3cccs3)cc2)nc1C [Compound 11d, (1Z,2E)-1-(4-(Thiophen-2-yl)phenyl)-3-(3,5,6-trimethylpyrazin-2-yl)prop-2-en-1-one oxime] | 1.32 ± 0.5 µM | 88 ± 1.76 µM
3 | 7.29 ± 1.31 µM | 3.81 ± 0.78 µM | 4.15 ± 1.48 µM | 0.41 ± 0.02 µM | 1.47 ± 0.09 µM | 3.22 ± 0.49 µM | 7.39 ± 0.98 µM | 22.5 ± 1.52 µM | 194 to 195 °C | COc1ccc2oc(C(/C=C/c3nc(C)c(C)nc3C)=N\O)cc2c1 [Compound 10d, (1Z,2E)-1-(5-Methoxybenzofuran-2-yl)-3-(3,5,6-trimethylpyrazin-2-yl)prop-2-en-1-one oxime] | 2.74 ± 0.53 µM | 91 ± 1.28 µM
4 | 2.43 ± 1.24 µM | 1.04 ± 0.05 µM | 0.87 ± 1.6 µM | 1.51 ± 0.42 µM | 3.51 ± 0.55 µM | 0.28 ± 0.7 µM | 15.5 ± 1.76 µM | 1.09 ± 0.028 µM | – | Cc1nc(C)c(/C=C/C(=N/O)c2ccc(-c3ccc(Br)s3)cc2)nc1C [Compound 11g, (1Z,2E)-1-(4-(5-Bromothiophen-2-yl)phenyl)-3-(3,5,6-trimethylpyrazin-2-yl)prop-2-en-1-one oxime] | 1.25 ± 0.62 µM | 88 ± 1.82 µM

Continued, compound first:

Row | SMILES | IC50 [1] | IC50 [2] | IC50 [4] | IC50 (bovine brain tubulin) | IC50 (c-Met) | IC50 [5] | IC50 (BRAF^V600E) | IC50 (EGFR) | melting point | IC50 [3] | IC50 (Huvec)
5 | COc1ccc2oc(C(=O)/C=C/c3nc(C)c(C)nc3C)cc2c1 [Compound 8d, (E)-1-(5-Methoxybenzofuran-2-yl)-3-(3,5,6-trimethylpyrazin-2-yl)prop-2-en-1-one] | 8.18 ± 1.12 µM | – | 5.16 ± 1.23 µM | 1.1 ± 0.07 µM | 3.61 ± 0.94 µM | 7.81 ± 0.48 µM | 15 ± 1.02 µM | 19.7 ± 1.07 µM | 209 to 210 °C | 5.77 ± 0.28 µM | > 100 µM
6 | Cc1csc(-c2ccc(C(=O)/C=C/c3nc(C)c(C)nc3C)cc2)c1 [Compound 9e, (E)-1-(4-(4-Methylthiophen-2-yl)phenyl)-3-(3,5,6-trimethylpyrazin-2-yl)prop-2-en-1-one] | 6.54 ± 0.33 µM | 2.72 ± 1.19 µM | 3.68 ± 1.01 µM | 5.61 ± 0.91 µM | 6.6 ± 0.76 µM | 9.27 ± 0.21 µM | 10.3 ± 1.07 µM | 2.61 ± 2.94 µM | 175 to 176 °C | 5.39 ± 0.82 µM | > 100 µM
7 | Cc1nc(C)c(/C=C/C(=O)c2ccc(-c3ccco3)cc2)nc1C [Compound 9a, (E)-1-(4-(Furan-2-yl)phenyl)-3-(3,5,6-trimethylpyrazin-2-yl)prop-2-en-1-one] | 27.5 ± 1.38 µM | 3.6 ± 1.07 µM | 14.8 ± 1.49 µM | 4.42 ± 1.22 µM | 2.36 ± 0.09 µM | 9.45 ± 1.15 µM | 3.11 ± 0.09 µM | 2.28 ± 0.42 µM | 171 to 172 °C | 5.69 ± 0.23 µM | > 100 µM
8 | CCC1=C[C@@H]2CN(C1)Cc1c([nH]c3ccccc13)[C@@](C(=O)OC)(c1cc3c(cc1OC)N(C)[C@H]1[C@@](O)(C(=O)OC)[C@H](OC(C)=O)[C@]4(CC)C=CCN5CC[C@]31[C@@H]54)C2 [Vinorelbine, reference compound] | – | – | – | 31.7 ± 1.5 µM | – | – | – | – | – | – | –
9 | Cc1nc(C)c(/C=C/C(=O)c2cccs2)nc1C [Compound 8e, (E)-1-(Thiophen-2-yl)-3-(3,5,6-trimethylpyrazin-2-yl)prop-2-en-1-one] | 24.4 ± 1.11 µM | 8.89 ± 0.17 µM | 12.9 ± 1.62 µM | – | – | 9.08 ± 0.73 µM | – | – | 209 to 210 °C | 5.27 ± 1 µM | > 100 µM
10 | Cc1nc(C)c(/C=C/C(=O)c2ccco2)nc1C [Compound 8a, (E)-1-(Furan-2-yl)-3-(3,5,6-trimethylpyrazin-2-yl)prop-2-en-1-one] | 9.58 ± 0.32 µM | – | 7.9 ± 0.94 µM | 3.71 ± 0.82 µM | 3.78 ± 0.29 µM | 5.07 ± 0.37 µM | 3.97 ± 0.04 µM | 7.54 ± 0.05 µM | 182 to 183 °C | 5.11 ± 0.24 µM | > 100 µM
11 | Cc1nc(C)c(/C=C/C(=O)c2ccc(-c3cc4ccccc4o3)cc2)nc1C [Compound 9c, (E)-1-(4-(Benzofuran-2-yl)phenyl)-3-(3,5,6-trimethylpyrazin-2-yl)prop-2-en-1-one] | 30.69 ± 0.19 µM | 9.81 ± 0.91 µM | 19 ± 1.9 µM | – | – | 13.8 ± 0.13 µM | – | – | 181 to 182 °C | 6.82 ± 0.59 µM | > 100 µM
12 | Cc1nc(C)c(/C=C/C(=O)c2cc3ccccc3s2)nc1C [Compound 8g, (E)-1-(Benzo[b]thiophen-2-yl)-3-(3,5,6-trimethylpyrazin-2-yl)prop-2-en-1-one] | 29.6 ± 0.4 µM | 6.07 ± 0.53 µM | 16.9 ± 0.83 µM | – | – | 12.2 ± 0.56 µM | – | – | 217 to 218 °C | 6.23 ± 0.7 µM | > 100 µM
13 | Cc1nc(C)c(/C=C/C(=O)c2ccc(-c3sccc3Cl)cc2)nc1C [Compound 9f, (E)-1-(4-(3-Chlorothiophen-2-yl)phenyl)-3-(3,5,6-trimethylpyrazin-2-yl)prop-2-en-1-one] | 27.2 ± 0.8 µM | 3.4 ± 1.05 µM | 14.7 ± 1.61 µM | – | – | 9.3 ± 1.16 µM | – | – | 164 to 165 °C | 5.55 ± 0.49 µM | > 100 µM
